Results: ChEMBL document CHEMBL5244205, “Discovery of tricyclic dipyrrolopyridine derivatives as novel JAK inhibitors” (Bioorg Med Chem, 2017)

Experiments:
CYP3A4 = CYP3A4 (Homo sapiens, UniProt P08684); assay: in vitro; conditions: liver microsomes, probe midazolam, TDI
in vitro [1] = conditions: PAMPA, pH 6.5, permeability
Description: Permeability of the compound in pH 6.5 incubated for 2 hrs by PAMPA based HPLC analysis

[2] = target: Tyrosine-protein kinase JAK2 (Homo sapiens, UniProt O60674)
Description: Inhibition of human JAK2 kinase domain using biotin-Lyn-substrate-2 as substrate incubated for 1 hr by ELISA

[3] = target: T1, Tyrosine-protein kinase JAK3 (Homo sapiens, UniProt P52333)
T1 sequence (P52333 whole entry): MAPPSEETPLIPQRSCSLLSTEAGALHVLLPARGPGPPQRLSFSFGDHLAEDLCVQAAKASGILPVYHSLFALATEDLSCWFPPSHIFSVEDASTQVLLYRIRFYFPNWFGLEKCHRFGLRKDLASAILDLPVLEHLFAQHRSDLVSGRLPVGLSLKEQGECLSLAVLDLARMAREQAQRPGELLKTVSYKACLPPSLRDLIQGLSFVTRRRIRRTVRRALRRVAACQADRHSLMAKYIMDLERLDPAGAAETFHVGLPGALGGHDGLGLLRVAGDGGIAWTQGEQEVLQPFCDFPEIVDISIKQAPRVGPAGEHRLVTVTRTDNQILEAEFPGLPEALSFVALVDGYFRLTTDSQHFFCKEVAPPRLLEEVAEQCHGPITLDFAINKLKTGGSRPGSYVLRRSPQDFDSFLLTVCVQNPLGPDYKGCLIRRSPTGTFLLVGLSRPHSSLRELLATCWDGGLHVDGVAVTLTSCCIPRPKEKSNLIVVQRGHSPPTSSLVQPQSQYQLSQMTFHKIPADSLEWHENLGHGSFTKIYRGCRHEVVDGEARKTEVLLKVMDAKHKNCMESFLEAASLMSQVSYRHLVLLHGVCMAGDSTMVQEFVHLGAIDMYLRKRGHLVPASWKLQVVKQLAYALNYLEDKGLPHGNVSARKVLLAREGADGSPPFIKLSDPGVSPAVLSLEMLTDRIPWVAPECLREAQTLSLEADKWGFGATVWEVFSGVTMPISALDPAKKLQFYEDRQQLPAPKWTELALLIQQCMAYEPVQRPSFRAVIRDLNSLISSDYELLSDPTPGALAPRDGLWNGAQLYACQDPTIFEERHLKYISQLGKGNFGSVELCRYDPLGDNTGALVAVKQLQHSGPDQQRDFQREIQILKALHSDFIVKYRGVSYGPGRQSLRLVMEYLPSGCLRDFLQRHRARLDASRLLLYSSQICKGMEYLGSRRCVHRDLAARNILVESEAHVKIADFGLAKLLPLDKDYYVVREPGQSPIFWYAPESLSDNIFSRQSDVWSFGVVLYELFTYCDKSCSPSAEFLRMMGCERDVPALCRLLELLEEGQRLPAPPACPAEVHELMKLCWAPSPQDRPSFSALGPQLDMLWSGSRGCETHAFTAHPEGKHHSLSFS
Description: Inhibition of human JAK3 kinase domain using biotin-Lyn-substrate-2 as substrate incubated for 1 hr by ELISA

in vitro [4] = conditions: Sprague-Dawley, rat, liver microsomes, CLH
[5] = target: Tyrosine-protein kinase JAK1 (Homo sapiens, UniProt P23458)
Description: Inhibition of human JAK1 kinase domain using biotin-Lyn-substrate-2 as substrate incubated for 1 hr by ELISA

[6] = target: Mitogen-activated protein kinase 8 (Homo sapiens, UniProt P45983); assay: Inhibition of JNK1 (unknown origin) at 1000 nM relative to control
[7] = target: Calcium/calmodulin-dependent protein kinase type II subunit alpha (Homo sapiens, UniProt Q9UQM7); assay: Inhibition of CAMK2alpha (unknown origin) at 1000 nM relative to control
[8] = target: Protein kinase C alpha type (Homo sapiens) (UniProt P17252); assay: Inhibition of PKCalpha (unknown origin) at 1000 nM relative to control
[9] = target: Serine/threonine-protein kinase Chk1 (Homo sapiens) (UniProt O14757); assay: Inhibition of CHK1 (unknown origin) at 1000 nM relative to control
[10] = target: RAC-alpha serine/threonine-protein kinase (Homo sapiens, UniProt P31749); assay: Inhibition of AKT1 (unknown origin) at 1000 nM relative to control
[11] = target: Ribosomal protein S6 kinase beta-1 (Homo sapiens, UniProt P23443); assay: Inhibition of p70S6K (unknown origin) at 1000 nM relative to control
Homo sapiens = species on record: Homo sapiens; assay: Selectivity index, ratio of IC50 for human JAK3 to IC50 for human JAK2
[12] = target: Dual specificity mitogen-activated protein kinase kinase 1 (Homo sapiens, UniProt Q02750); assay: Inhibition of MAP2K1 (unknown origin) at 1000 nM relative to control
[13] = target: Tyrosine-protein kinase Lck (Homo sapiens) (UniProt P06239); assay: Inhibition of LCK (unknown origin) at 1000 nM relative to control
[14] = target: Rho-associated protein kinase 1 (Homo sapiens) (UniProt Q13464); assay: Inhibition of ROCK1 (unknown origin) at 1000 nM relative to control
[15] = target: Cyclin-dependent kinase 2 (Homo sapiens, UniProt P24941); assay: Inhibition of CDK2 (unknown origin) at 1000 nM relative to control
[16] = target: Proto-oncogene tyrosine-protein kinase Src (Homo sapiens, UniProt P12931); assay: Inhibition of SRC (unknown origin) at 1000 nM relative to control
[17] = target: Glycogen synthase kinase-3 beta (Homo sapiens, UniProt P49841); assay: Inhibition of GSK3beta (unknown origin) at 1000 nM relative to control
[18] = target: High affinity nerve growth factor receptor (Homo sapiens, UniProt P04629); assay: Inhibition of TRKA (unknown origin) at 1000 nM relative to control
[19] = target: Aurora kinase C (Homo sapiens) (UniProt Q9UQB9); assay: Inhibition of AURC (unknown origin) at 1000 nM relative to control
[20] = Volume of distribution in Sprague-Dawley rat at 1 mg/kg, iv measured up to 24 hrs by LC-MS/MS analysis; type: ADME, organism-based; conditions: in vivo
[21] = Cmax in Sprague-Dawley rat at 1 mg/kg, po measured up to 24 hrs by LC-MS/MS analysis; type: ADME, organism-based; design: time < 24 hrs, dose 1 mg/kg, route po; conditions: in vivo
[22] = Half life in Sprague-Dawley rat at 1 mg/kg, iv measured up to 24 hrs by LC-MS/MS analysis; type: ADME, organism-based; conditions: in vivo
[23] = Clearance in Sprague-Dawley rat at 1 mg/kg, iv measured up to 24 hrs by LC-MS/MS analysis; type: ADME, organism-based; conditions: in vivo
[24] = Oral availability in Sprague-Dawley rat at 1 mg/kg measured up to 24 hrs by LC-MS/MS analysis; type: ADME, organism-based; conditions: in vivo
[25] = Tmax in Sprague-Dawley rat at 1 mg/kg, po measured up to 24 hrs by LC-MS/MS analysis; type: ADME, organism-based; conditions: in vivo
[26] = AUC (0 to 24 hrs) in Sprague-Dawley rat at 1 mg/kg, po measured up to 24 hrs by LC-MS/MS analysis; type: ADME, organism-based; design: dose 1 mg/kg, time < 24 hrs, route po; conditions: in vivo
[27] = AUC (0 to 24 hrs) in Sprague-Dawley rat at 1 mg/kg, iv measured up to 24 hrs by LC-MS/MS analysis; type: ADME, organism-based; design: dose 1 mg/kg, time < 24 hrs, route iv; conditions: in vivo
[28] = Half life in Sprague-Dawley rat at 1 mg/kg, po measured up to 24 hrs by LC-MS/MS analysis; type: ADME, organism-based; conditions: in vivo

Sequence of Tyrosine-protein kinase JAK1 (P23458 whole entry): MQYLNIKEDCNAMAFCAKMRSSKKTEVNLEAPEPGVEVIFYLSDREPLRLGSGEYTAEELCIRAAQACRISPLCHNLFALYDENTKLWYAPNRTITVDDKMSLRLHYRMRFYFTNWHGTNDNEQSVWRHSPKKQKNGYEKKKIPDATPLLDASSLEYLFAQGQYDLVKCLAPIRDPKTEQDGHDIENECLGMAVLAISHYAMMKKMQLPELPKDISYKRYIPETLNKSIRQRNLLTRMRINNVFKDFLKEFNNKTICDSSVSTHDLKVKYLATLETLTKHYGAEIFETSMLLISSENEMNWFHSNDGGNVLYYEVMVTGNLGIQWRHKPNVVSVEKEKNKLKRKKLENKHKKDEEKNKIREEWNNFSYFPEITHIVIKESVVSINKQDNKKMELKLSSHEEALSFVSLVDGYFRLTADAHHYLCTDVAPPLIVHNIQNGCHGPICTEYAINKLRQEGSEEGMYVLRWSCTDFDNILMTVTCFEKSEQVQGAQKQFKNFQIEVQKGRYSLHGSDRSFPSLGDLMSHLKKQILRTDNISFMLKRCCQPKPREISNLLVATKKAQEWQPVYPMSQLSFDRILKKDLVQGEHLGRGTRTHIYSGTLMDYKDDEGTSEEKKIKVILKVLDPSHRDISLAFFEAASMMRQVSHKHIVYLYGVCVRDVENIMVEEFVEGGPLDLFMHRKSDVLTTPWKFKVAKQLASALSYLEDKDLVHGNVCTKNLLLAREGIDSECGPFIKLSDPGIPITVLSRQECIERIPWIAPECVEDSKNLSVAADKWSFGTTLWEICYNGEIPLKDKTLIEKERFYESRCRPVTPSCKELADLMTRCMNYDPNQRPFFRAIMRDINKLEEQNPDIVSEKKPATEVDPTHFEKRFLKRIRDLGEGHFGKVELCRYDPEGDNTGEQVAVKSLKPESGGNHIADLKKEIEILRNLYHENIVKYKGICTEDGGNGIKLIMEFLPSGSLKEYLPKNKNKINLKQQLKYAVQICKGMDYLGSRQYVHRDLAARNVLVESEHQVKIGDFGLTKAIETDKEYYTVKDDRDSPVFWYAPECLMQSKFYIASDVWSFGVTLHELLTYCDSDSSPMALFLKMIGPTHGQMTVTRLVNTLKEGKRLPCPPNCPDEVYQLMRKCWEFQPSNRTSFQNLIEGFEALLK
Sequence of CYP3A4 (P08684 whole entry): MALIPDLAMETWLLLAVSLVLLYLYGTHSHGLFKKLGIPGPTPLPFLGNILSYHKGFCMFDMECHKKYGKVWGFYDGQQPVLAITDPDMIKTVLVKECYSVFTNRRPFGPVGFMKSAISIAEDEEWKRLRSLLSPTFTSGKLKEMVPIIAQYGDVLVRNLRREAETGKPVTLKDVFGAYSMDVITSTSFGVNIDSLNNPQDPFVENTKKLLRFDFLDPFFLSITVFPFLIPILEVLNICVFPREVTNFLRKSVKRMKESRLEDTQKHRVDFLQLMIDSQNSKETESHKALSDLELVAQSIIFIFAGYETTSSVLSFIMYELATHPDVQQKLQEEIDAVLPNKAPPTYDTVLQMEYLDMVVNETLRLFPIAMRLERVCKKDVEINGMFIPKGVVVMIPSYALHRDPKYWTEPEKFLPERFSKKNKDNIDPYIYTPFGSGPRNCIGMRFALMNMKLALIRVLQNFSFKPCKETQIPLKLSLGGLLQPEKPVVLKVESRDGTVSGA
Sequence of Tyrosine-protein kinase JAK2 (O60674 whole entry): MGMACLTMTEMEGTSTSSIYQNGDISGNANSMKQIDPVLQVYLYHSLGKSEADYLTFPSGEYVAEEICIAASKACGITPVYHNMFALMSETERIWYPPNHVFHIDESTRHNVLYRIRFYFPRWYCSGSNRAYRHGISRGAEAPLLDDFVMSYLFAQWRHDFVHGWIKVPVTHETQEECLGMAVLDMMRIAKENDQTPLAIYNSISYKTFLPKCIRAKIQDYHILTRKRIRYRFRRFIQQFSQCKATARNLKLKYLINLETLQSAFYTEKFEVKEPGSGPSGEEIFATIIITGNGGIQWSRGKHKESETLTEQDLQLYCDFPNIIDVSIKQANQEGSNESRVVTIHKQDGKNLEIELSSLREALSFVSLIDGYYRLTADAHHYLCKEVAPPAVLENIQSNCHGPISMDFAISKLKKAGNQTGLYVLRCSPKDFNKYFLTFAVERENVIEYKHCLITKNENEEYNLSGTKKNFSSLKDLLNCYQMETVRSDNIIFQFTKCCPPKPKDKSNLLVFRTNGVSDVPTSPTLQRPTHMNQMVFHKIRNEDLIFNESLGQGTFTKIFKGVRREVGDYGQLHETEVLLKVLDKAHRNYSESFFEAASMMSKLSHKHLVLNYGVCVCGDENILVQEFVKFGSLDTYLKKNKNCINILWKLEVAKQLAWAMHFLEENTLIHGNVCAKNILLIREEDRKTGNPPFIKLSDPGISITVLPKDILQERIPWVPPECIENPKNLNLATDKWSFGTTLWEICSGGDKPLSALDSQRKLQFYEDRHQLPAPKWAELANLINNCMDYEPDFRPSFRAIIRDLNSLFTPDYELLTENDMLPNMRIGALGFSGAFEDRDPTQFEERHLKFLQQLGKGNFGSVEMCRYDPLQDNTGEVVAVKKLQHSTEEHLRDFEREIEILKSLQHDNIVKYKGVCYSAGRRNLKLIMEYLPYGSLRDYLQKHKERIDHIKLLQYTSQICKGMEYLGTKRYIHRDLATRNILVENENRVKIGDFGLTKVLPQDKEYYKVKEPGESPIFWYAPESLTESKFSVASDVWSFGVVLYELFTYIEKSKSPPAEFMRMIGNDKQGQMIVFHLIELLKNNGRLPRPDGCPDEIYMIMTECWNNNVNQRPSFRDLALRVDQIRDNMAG
Sequence of Rho-associated protein kinase 1 (Homo sapiens) (Q13464 2-1354 limits assumed): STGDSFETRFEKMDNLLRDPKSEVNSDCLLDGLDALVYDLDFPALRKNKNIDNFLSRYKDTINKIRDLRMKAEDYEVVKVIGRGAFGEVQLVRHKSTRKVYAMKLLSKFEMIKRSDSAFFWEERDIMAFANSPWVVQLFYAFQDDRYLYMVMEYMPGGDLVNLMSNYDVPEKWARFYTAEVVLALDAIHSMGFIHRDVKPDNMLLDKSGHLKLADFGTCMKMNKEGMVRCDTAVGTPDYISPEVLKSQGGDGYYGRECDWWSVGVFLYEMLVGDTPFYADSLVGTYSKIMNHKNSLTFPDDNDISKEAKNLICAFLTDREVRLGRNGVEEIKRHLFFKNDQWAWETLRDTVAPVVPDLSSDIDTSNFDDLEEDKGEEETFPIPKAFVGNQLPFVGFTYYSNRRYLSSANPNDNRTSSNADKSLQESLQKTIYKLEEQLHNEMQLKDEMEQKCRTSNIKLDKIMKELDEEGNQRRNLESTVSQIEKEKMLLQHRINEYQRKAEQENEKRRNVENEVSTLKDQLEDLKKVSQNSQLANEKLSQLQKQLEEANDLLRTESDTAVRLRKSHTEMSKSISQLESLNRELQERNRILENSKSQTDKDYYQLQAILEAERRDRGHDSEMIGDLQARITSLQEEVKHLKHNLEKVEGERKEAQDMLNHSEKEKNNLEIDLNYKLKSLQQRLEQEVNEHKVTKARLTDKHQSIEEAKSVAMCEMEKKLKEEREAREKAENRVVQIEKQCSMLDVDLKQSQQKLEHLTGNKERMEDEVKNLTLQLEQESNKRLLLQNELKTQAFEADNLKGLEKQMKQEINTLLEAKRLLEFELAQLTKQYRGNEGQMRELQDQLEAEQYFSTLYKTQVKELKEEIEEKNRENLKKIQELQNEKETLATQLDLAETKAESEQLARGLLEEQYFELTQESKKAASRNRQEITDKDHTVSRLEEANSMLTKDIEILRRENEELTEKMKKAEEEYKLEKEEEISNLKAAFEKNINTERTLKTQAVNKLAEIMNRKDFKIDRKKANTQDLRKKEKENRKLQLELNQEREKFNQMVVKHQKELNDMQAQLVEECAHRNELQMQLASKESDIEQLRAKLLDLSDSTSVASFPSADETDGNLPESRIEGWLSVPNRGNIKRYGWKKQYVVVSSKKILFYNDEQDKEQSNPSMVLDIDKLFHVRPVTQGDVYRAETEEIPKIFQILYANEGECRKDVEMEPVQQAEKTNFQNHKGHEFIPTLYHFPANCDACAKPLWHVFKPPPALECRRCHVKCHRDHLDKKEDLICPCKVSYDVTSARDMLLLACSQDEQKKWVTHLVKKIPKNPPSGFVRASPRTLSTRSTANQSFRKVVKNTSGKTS

Structure (SMILES)	inhibition at 20 min, 5 µM (CYP3A4) [%]	Papp at 2 h (in vitro [1]) [×10⁻⁶ cm/s]	IC50 [2] [nM]	IC50 [3] [nM]	CLint scaled at 0.75 h, 0.2 µM (in vitro [4]) [mL/min/kg]	IC50 [5] [nM]	also measured
Cc1c[nH]c2ncc3ccn([C@H]4CN(C(=O)CC#N)CC[C@H]4C)c3c12 (racemic)	62	23	4.9	2.5	309	–	–
C[C@@H]1CCN(C(=O)C(C)(C)C#N)C[C@@H]1n1c(=O)[nH]c2cnc3[nH]ccc3c21 (racemic)	18	6.3	15	7.1	44	58	–
C[C@@H]1CCN(C(=O)CC#N)C[C@@H]1n1ncc2cnc3[nH]ccc3c21 (racemic)	–	5.9	11	4.1	–	7.5	–
C[C@@H]1CCN(C(=O)CC#N)C[C@@H]1n1ccc2cnc3[nH]cc(C#N)c3c21	–	–	–	–	–	–	inhibition [6]: 59%; inhibition [7]: 54%; inhibition [8]: 98%; inhibition [9]: 59%; inhibition [10]: 80%; inhibition [11]: 78%; Ratio IC50 (Homo sapiens): 10; inhibition [12]: 90%; inhibition [13]: 88%; inhibition [14]: 75%; inhibition [15]: 91%; inhibition [16]: 51%; inhibition [17]: 92%; inhibition [18]: 67%; inhibition [19]: 77%
Cc1cc2cnc3[nH]ccc3c2n1[C@H]1CN(C(=O)CC#N)CC[C@H]1C (racemic)	44	26	0.3	0.17	154	0.43	–
C[C@@H]1CCN(C(=O)N2CCCCC2)C[C@@H]1n1c(=O)[nH]c2cnc3[nH]ccc3c21 (racemic)	11	11	7	2.1	249	13	–
C[C@@H]1CCN(C(=O)CC#N)C[C@@H]1n1c(=O)[nH]c2cnc3[nH]ccc3c21 (racemic)	90	< 0.7	–	–	–	–	Vd [20]: 3.62 L/kg; Cmax [21]: 2.98 ng/mL; half-life [22]: 1.13 h; clearance [23]: 113 mL/min/kg; bioavailability [24]: 11.2%; Tmax [25]: 0.25 h; AUC(0-t) at 24 h [26]: 11.8 ng·h/mL; AUC(0-t) at 24 h [27]: 148 ng·h/mL; half-life [28]: 11.8 h
C[C@@H]1CCN(c2ccc(C#N)cn2)C[C@@H]1n1c(=O)[nH]c2cnc3[nH]ccc3c21 (racemic)	29	8.8	4.5	1.6	195	9	–
C[C@@H]1CCN(C(=O)Cn2cnnn2)C[C@@H]1n1c(=O)[nH]c2cnc3[nH]ccc3c21 (racemic)	88	< 0.8	3.5	1.4	–	3.2	–
C[C@@H]1CCN(C(=O)CC#N)C[C@@H]1n1ccc2cnc3[nH]ccc3c21 (racemic)	90	13	1	0.44	110	1.1	–
C[C@@H]1CCN(C(=O)CC#N)C[C@@H]1n1ccc2cnc3[nH]cc(C#N)c3c21 (racemic)	90	13	4.1	0.38	419	–	–
C[C@H]1CCN(C(=O)CC#N)C[C@H]1n1ccc2cnc3[nH]ccc3c21	88	21	390	200	89	–	–
C[C@@H]1CCN(C(=O)CC#N)C[C@@H]1n1c(=O)n(C)c2cnc3[nH]ccc3c21 (racemic)	–	2.5	–	–	–	–	–
C[C@@H]1CCN(C(=O)CC#N)C[C@@H]1n1ccc2cnc3[nH]ccc3c21	–	–	–	–	–	–	inhibition [8]: 67%; inhibition [13]: 55%; inhibition [14]: 75%
C[C@@H]1CCN(C(=O)N2CCOCC2)C[C@@H]1n1c(=O)[nH]c2cnc3[nH]ccc3c21 (racemic)	61	1.3	12	5.5	–	19	–
C[C@@H]1CCN(C(=O)CC#N)C[C@@H]1n1cc(C#N)c2cnc3[nH]ccc3c21 (racemic)	91	3.8	2.2	1.1	47	–	–
